Consider 6 compounds from PubChem BioAssay AID1918941 (Molecular Pharmacology Branch, DTP, NCI, 2023).

The test system of this experiment is SW 1271 complex spheroids, viability. The experiment in a line: Anticancer human tumor SW 1271 cell line growth inhibition [LSD1].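 For all read-outs here: spheroids exposed to agents for 7 days before luminescence read.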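 For viability, T/C: 100% = DMSO vehicle control viability.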 Conditions: for viability, T/C: stronger effect = lower value. Summed up:
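Multicellular complex spheroids of tumor cells with human endothelial cells (HUVEC) and mesenchymal stem cells; the LSD1 inhibitor iadademstat was combined with standard-of-care or investigational agents. Top concentration at or near clinical Cmax, half-log dilutions; final DMSO ≤0.25%.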

Setting [1] is: curve of first compound, second compound 0.1 µM.
Setting [2] is: curve of first compound, second compound 0.316 µM.
[3] abbreviates: curve of first compound, second compound 1 µM.
[4] abbreviates: curve of first compound, second compound 3.16 µM.
Where [5] appears, read: curve of first compound, second compound 10 µM.
Setting [6] is: second compound 0.1 µM, first compound 0.0316 µM.
[7] abbreviates: second compound 0.1 µM, first compound 0.1 µM.
[8] abbreviates: second compound 0.1 µM, first compound 0.316 µM.
The mark [9] stands for this setting: second compound 0.1 µM, first compound 1 µM.
[10] abbreviates: second compound 0.316 µM, first compound 0.0316 µM.
[11] abbreviates: second compound 0.316 µM, first compound 0.1 µM.
Where [12] appears, read: second compound 0.316 µM, first compound 0.316 µM.
The mark [13] stands for this setting: second compound 0.316 µM, first compound 1 µM.
Setting [14] is: second compound 1 µM, first compound 0.0316 µM.
The mark [15] stands for this setting: second compound 1 µM, first compound 0.1 µM.
[16] abbreviates: second compound 1 µM, first compound 0.316 µM.
Where [17] appears, read: second compound 1 µM, first compound 1 µM.
The mark [18] stands for this setting: second compound 3.16 µM, first compound 0.0316 µM.
The mark [19] stands for this setting: second compound 3.16 µM, first compound 0.1 µM.
The mark [20] stands for this setting: second compound 3.16 µM, first compound 0.316 µM.
The mark [21] stands for this setting: second compound 3.16 µM, first compound 1 µM.
Where [22] appears, read: second compound 10 µM, first compound 0.0316 µM.
Where [23] appears, read: second compound 10 µM, first compound 0.1 µM.
Setting [24] is: second compound 10 µM, first compound 0.316 µM.
Setting [25] is: second compound 10 µM, first compound 1 µM.

The structures appear in SMILES notation. Values joined by “and” are separate entries in the source; they are usually repeats but may differ in a detail not shown here. Identical values can stand only once.

In the case of `Nc1ncn(C2CC(O)C(CO)O2)c(=O)n1` (stereo unspecified), the viability, T/C (compound 0.00316 µM) is 96% and 88.2%; the viability, T/C (compound 0.01 µM) is 86.6% and 105%; the viability, T/C (compound 0.0316 µM) is 83.1% and 88.3%; the viability, T/C (compound 0.1 µM) is 86.9% and 93.3%; the viability, T/C (compound 0.316 µM) was 83% and 80.3%; the viability, T/C (compound 1 µM) was 86.7% and 89.8%. Further, under “curve of compound”, the IC50 is above 1000 nM.

In the case of `O=C(C=Cn1cnc(-c2cc(C(F)(F)F)cc(C(F)(F)F)c2)n1)NNc1cnccn1` + NC1CCC(NC2CC2c2ccccc2)CC1, the half-inhibitory concentration (IC50) came to 135 nM under setting [1]; 189 nM under setting [2]; 229 nM under setting [3]; 215 nM under setting [4]; 203 nM under setting [5]. Moreover, the viability, T/C (second compound 0.1 µM, first compound 0.00316 µM) is 86.6%; the viability, T/C (second compound 0.1 µM, first compound 0.01 µM) is 91.2%; the viability, T/C under setting [6] is 72.9%; the viability, T/C under setting [7] is 50.2%; the viability, T/C under setting [8] is 42.8%; the viability, T/C under setting [9] was 24.6%. Also, the viability, T/C was 84.5% (second compound 0.316 µM, first compound 0.00316 µM); 77.3% (second compound 0.316 µM, first compound 0.01 µM); 81.3% under setting [10]; 53.5% under setting [11]; 46% under setting [12]; 27.4% under setting [13]. For the same compound, the viability, T/C is 90.5% (second compound 1 µM, first compound 0.00316 µM); 101% (second compound 1 µM, first compound 0.01 µM); 88.9% under setting [14]; 62.4% under setting [15]; 47% under setting [16]; 18.5% under setting [17]. In addition, the viability, T/C is 81.9% (second compound 3.16 µM, first compound 0.00316 µM); 79.3% (second compound 3.16 µM, first compound 0.01 µM); 92.1% under setting [18]; 54.3% under setting [19]; 48.3% under setting [20]; 23.7% under setting [21]. In addition, the viability, T/C reads like this: (second compound 10 µM, first compound 0.00316 µM) 87.5%; (second compound 10 µM, first compound 0.01 µM) 86.6%; under setting [22], 79.1%; under setting [23], 59%; under setting [24], 44.8%; under setting [25], 29.5%.

With `Nc1ccn(C2OC(CO)C(O)C2(F)F)c(=O)n1` (stereo unspecified), the viability, T/C was 73.7% and 82.6% (compound 0.000949 µM); 73.8% and 71.3% (compound 0.003 µM); 64.3% and 67.8% (compound 0.00949 µM); 66% and 66.1% (compound 0.03 µM); 67.3% and 68.9% (compound 0.0949 µM); 64.6% and 74.8% (compound 0.3 µM). Also, the IC50 (curve of compound) was above 300 nM.

With `CC1COCCN1c1cc(C2(S(C)(=N)=O)CC2)nc(-c2ccnc3[nH]ccc23)n1` (stereo unspecified) + NC1CCC(NC2CC2c2ccccc2)CC1, the IC50 under setting [1] was above 10000 nM; the concentration for half-maximal inhibition (IC50) under setting [2] came to 8630 nM; the 50% inhibitory concentration (IC50) under setting [3] is above 10000 nM; the IC50 under setting [4] stood at 9170 nM; the IC50 under setting [5] stood at 3280 nM. Also, the viability, T/C under setting [6] was 108%; the viability, T/C under setting [7] was 103%; the viability, T/C under setting [8] is 111%; the viability, T/C under setting [9] was 76.2%; the viability, T/C (second compound 0.1 µM, first compound 3.16 µM) was 69.1%; the viability, T/C (second compound 0.1 µM, first compound 10 µM) was 58.8%. Besides, the viability, T/C under setting [10] was 100%; the viability, T/C under setting [11] was 95.8%; the viability, T/C under setting [12] was 99.1%; the viability, T/C under setting [13] is 81.7%; the viability, T/C (second compound 0.316 µM, first compound 3.16 µM) is 59.5%; the viability, T/C (second compound 0.316 µM, first compound 10 µM) was 48.3%. In addition, the viability, T/C reads like this: under setting [14], 94.5%; under setting [15], 101%; under setting [16], 85.1%; under setting [17], 68.2%; (second compound 1 µM, first compound 3.16 µM) 72.3%; (second compound 1 µM, first compound 10 µM) 53.7%. The viability, T/C is 82.9% under setting [18]; 88.7% under setting [19]; 86.7% under setting [20]; 75.9% under setting [21]; 73.4% (second compound 3.16 µM, first compound 3.16 µM); 47.9% (second compound 3.16 µM, first compound 10 µM). Also, the viability, T/C is 97.4% under setting [22]; 92.3% under setting [23]; 71.1% under setting [24]; 78.4% under setting [25]; 50.9% (second compound 10 µM, first compound 3.16 µM); 19.4% (second compound 10 µM, first compound 10 µM).

With `CCN(c1cc(-c2ccc(CN3CCOCC3)cc2)cc(C(=O)NCc2c(C)cc(C)[nH]c2=O)c1C)C1CCOCC1`, the viability, T/C is 98.8% and 104% (compound 0.00949 µM); 116% and 109% (compound 0.03 µM); 90.8% and 91.2% (compound 0.0949 µM); 103% and 98.9% (compound 0.3 µM); 78.3% and 82.5% (compound 0.949 µM); 73.6% and 71.4% (compound 3 µM). Also, for the setting “curve of compound”, the IC50 was above 3000 nM.

For the compound `COc1cc(C2c3cc4c(cc3C(OC3OC5COC(C)OC5C(O)C3O)C3COC(=O)C23)OCO4)cc(OC)c1O` (stereo unspecified) + NC1CCC(NC2CC2c2ccccc2)CC1, the half-maximal inhibitory concentration (IC50) was 2660 nM under setting [1]; above 3000 nM under setting [2]; above 3000 nM under setting [3]; above 3000 nM under setting [4]; above 3000 nM under setting [5]. For the same compound, the viability, T/C runs as follows: (second compound 0.1 µM, first compound 0.00949 µM) 77%; (second compound 0.1 µM, first compound 0.03 µM) 76.8%; (second compound 0.1 µM, first compound 0.0949 µM) 80.5%; (second compound 0.1 µM, first compound 0.3 µM) 68.9%; (second compound 0.1 µM, first compound 0.949 µM) 78.7%; (second compound 0.1 µM, first compound 3 µM) 47%. The viability, T/C is, setting by setting: (second compound 0.316 µM, first compound 0.00949 µM) 88.7%; (second compound 0.316 µM, first compound 0.03 µM) 94.4%; (second compound 0.316 µM, first compound 0.0949 µM) 75%; (second compound 0.316 µM, first compound 0.3 µM) 66.7%; (second compound 0.316 µM, first compound 0.949 µM) 58.4%; (second compound 0.316 µM, first compound 3 µM) 64.1%. For the same compound, the viability, T/C is 80.2% (second compound 1 µM, first compound 0.00949 µM); 80.2% (second compound 1 µM, first compound 0.03 µM); 74.2% (second compound 1 µM, first compound 0.0949 µM); 75% (second compound 1 µM, first compound 0.3 µM); 66.7% (second compound 1 µM, first compound 0.949 µM); 56.9% (second compound 1 µM, first compound 3 µM). The viability, T/C is 95.7% (second compound 3.16 µM, first compound 0.00949 µM); 70.9% (second compound 3.16 µM, first compound 0.03 µM); 71.8% (second compound 3.16 µM, first compound 0.0949 µM); 73.4% (second compound 3.16 µM, first compound 0.3 µM); 58.9% (second compound 3.16 µM, first compound 0.949 µM); 60.8% (second compound 3.16 µM, first compound 3 µM). The viability, T/C is, setting by setting: (second compound 10 µM, first compound 0.00949 µM) 77%; (second compound 10 µM, first compound 0.03 µM) 80.9%; (second compound 10 µM, first compound 0.0949 µM) 72.1%; (second compound 10 µM, first compound 0.3 µM) 72.2%; (second compound 10 µM, first compound 0.949 µM) 58.4%; (second compound 10 µM, first compound 3 µM) 64.3%.
